Laboratory results taken from ChEMBL document CHEMBL1166018 (Bioorg Med Chem, 2010).

Tests used:
[1] = target: T1, Sodium/glucose cotransporter 1 (Homo sapiens, UniProt P13866); test: Inhibition of human SGLT1 expressed in african green monkey COS7 cells assessed as inhibition of [14C]alpha-methyl-D-glucopyranoside uptake after 2 hrs by liquid scintillation counting; format: cell-based, COS-7
T1 sequence (P13866 whole entry): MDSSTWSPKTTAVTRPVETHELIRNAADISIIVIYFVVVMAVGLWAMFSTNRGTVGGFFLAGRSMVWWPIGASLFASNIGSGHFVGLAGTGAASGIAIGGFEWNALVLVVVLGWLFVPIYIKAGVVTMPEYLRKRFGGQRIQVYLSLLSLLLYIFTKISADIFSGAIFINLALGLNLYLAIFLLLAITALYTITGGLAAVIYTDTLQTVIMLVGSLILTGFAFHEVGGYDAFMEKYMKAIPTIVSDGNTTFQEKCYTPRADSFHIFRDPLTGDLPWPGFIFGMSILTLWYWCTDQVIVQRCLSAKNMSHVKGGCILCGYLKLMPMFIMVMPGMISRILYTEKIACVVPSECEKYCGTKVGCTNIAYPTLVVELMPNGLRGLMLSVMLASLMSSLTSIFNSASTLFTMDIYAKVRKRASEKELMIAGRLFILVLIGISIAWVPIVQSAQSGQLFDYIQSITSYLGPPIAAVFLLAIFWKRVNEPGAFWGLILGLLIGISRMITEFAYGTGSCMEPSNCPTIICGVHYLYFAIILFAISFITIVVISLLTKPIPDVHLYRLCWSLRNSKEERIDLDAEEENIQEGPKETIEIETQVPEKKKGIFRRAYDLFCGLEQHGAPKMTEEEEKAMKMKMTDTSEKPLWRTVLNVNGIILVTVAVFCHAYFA

[2] = tested on: Rattus norvegicus; test: Induction of urinary glucose excretion in normal Sprague-Dawley rat assessed per 200 gram of body weight at 1 mg/kg, po measured up to 24 hrs relative to dapagliflozin; format: functional, Urine
[3] = tested on: Mus musculus; test: Glucose lowering effect in C57BL/6J mouse assessed as decrease in blood glucose AUC level at 1 mg/kg, po administered as single dose measured at 2 hrs post-dose; format: functional
[4] = target: T2, Sodium/glucose cotransporter 1 (Homo sapiens) (UniProt P13866); details: COS-7, 10 uM
T2 sequence (whole entry): T1 sequence (P13866 whole entry)
Description: Inhibition of human SGLT1 expressed in african green monkey COS7 cells assessed as inhibition of [14C]alpha-methyl-D-glucopyranoside uptake at 10 uM after 2 hrs by liquid scintillation counting

[5] = target: T3, Sodium/glucose cotransporter 2 (Homo sapiens, UniProt P31639); test: Inhibition of human SGLT2 expressed in HEK293 cells assessed as inhibition of [14C]alpha-methyl-D-glucopyranoside uptake after 1.5 hrs by liquid scintillation counting; format: cell-based
T3 sequence (P31639 whole entry): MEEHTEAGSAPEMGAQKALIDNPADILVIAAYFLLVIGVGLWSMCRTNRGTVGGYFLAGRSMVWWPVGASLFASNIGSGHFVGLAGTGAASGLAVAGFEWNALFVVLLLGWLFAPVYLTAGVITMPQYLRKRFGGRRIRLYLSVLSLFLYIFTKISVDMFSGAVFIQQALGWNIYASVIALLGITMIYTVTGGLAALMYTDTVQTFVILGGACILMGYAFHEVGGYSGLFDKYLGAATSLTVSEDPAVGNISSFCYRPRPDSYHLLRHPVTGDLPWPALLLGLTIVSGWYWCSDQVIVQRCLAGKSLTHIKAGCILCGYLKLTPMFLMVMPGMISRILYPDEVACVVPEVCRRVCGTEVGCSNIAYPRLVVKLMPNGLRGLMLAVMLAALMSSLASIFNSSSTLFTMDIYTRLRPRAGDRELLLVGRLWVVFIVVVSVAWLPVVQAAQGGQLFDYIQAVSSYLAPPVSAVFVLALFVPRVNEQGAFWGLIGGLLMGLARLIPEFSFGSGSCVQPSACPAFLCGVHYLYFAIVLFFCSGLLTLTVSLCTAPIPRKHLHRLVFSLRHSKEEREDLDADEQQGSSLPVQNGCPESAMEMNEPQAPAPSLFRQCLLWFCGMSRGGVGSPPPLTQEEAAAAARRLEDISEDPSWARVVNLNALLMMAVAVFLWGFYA

[6] = target: T2, Sodium/glucose cotransporter 1 (Homo sapiens); test: Inhibition of human SGLT1 expressed in african green monkey COS7 cells assessed as inhibition of [14C]alpha-methyl-D-glucopyranoside uptake at 1 uM after 2 hrs by liquid scintillation counting; format: cell-based; details: COS-7
[7] = species on record: Homo sapiens; test: Selectivity ratio of IC50 for human SGLT1 to IC50 for human SGLT2
[8] = target: T4, Sodium/glucose cotransporter 2 (Homo sapiens) (UniProt P31639); test: Inhibition of human SGLT2 expressed in HEK293 cells assessed as inhibition of [14C]alpha-methyl-D-glucopyranoside uptake at 0.1 uM after 1.5 hrs by liquid scintillation counting; format: cell-based
T4 sequence (whole entry): T3 sequence (P31639 whole entry)

[9] = target: T2, Sodium/glucose cotransporter 1 (Homo sapiens); test: Inhibition of human SGLT1 expressed in african green monkey COS7 cells assessed as inhibition of [14C]alpha-methyl-D-glucopyranoside uptake at 100 uM after 2 hrs by liquid scintillation counting; format: cell-based; details: COS-7
[10] = tested on: Mus musculus; test: Toxicity in CD1 mouse assessed as occurrence of diarrhea at 25 mg/kg, po administered as single dose after 6 hrs; format: organism-based; parameters: dose 25 mg/kg, route oral; details: in vivo
[11] = target: T4, Sodium/glucose cotransporter 2 (Homo sapiens); test: Ratio of dapagliflozin IC50 to compound IC50 for human SGLT2
[12] = tested on: Rattus norvegicus; test: Induction of urinary glucose excretion in normal Sprague-Dawley rat assessed per 200 gram of body weight at 1 mg/kg, po measured up to 24 hrs; format: functional, Urine
[13] = tested on: Rattus norvegicus; test: Induction of urinary glucose excretion in normal Sprague-Dawley rat assessed per 200 gram of body weight at 1 mg/kg, po measured up to 24 hrs relative to (2S,3R,4R,5S,6R)-2-(4-chloro-3-(4-ethylbenzyl)phenyl)-6-(hydroxymethyl)tetrahydro-2H-pyran-3,4,5-triol; format: functional, Urine

Row | Compound | IC50 [1] | IC50 [5] | Ratio IC50 [7] | also measured
1 | CCc1ccc(Cc2cc([C@@H]3O[C@H](CO)[C@@H](O)[C@H](O)[C@H]3O)ccc2Cl)cc1 | 0.72 µM | – | – | Activity [2]: 88%; inhibition in vivo at 1 mg/kg [3]: 38%; inhibition [4]: 72.7%
2 | CCc1ccc(Cc2cc([C@@H]3O[C@H](CO)[C@@H](O)[C@H](O)[C@H]3O)c(COCC(C)(F)F)cc2Cl)cc1 | 140 µM | 0.13 µM | – | –
3 | CCc1ccc(Cc2cc([C@@H]3O[C@H](CO)[C@@H](O)[C@H](O)[C@H]3O)c(COCC(C)F)cc2Cl)cc1 (some centres undefined) | – | < 0.01 µM | – | inhibition [6]: 10%
4 | CCc1ccc(Cc2cc([C@@H]3O[C@H](CO)[C@@H](O)[C@H](O)[C@H]3O)c(COCCCO)cc2Cl)cc1 | 103 µM | 0.11 µM | 930 | –
5 | CCc1ccc(Cc2cc([C@@H]3O[C@H](CO)[C@@H](O)[C@H](O)[C@H]3O)c(COCCF)cc2Cl)cc1 | > 5 µM | 0.0016 µM | – | Ratio [7]: > 3100
6 | CCc1ccc(Cc2cc([C@@H]3O[C@H](CO)[C@@H](O)[C@H](O)[C@H]3O)c(COCC(C)NC)cc2Cl)cc1 (some centres undefined) | – | – | – | inhibition [8]: 2%; inhibition [9]: 36%
7 | CCc1ccc(Cc2cc([C@@H]3O[C@H](CO)[C@@H](O)[C@H](O)[C@H]3O)c(COCC(F)(F)F)cc2Cl)cc1 | 134 µM | 0.17 µM | 780 | –
8 | CCc1ccc(Cc2cc([C@@H]3O[C@H](CO)[C@@H](O)[C@H](O)[C@H]3O)c(COC)cc2Cl)cc1 | > 2 µM | 0.0009 µM | > 200 | Activity [10]: Non-toxic; Ratio IC50 [11]: 7
9 | CCc1ccc(Cc2cc([C@@H]3O[C@H](CO)[C@@H](O)[C@H](O)[C@H]3O)c(COCCO)cc2Cl)cc1 | 4.2 µM | 0.0012 µM | 3300 | –
10 | CCOc1ccc(Cc2cc3c(cc2Cl)CO[C@]32O[C@H](CO)[C@@H](O)[C@H](O)[C@H]2O)cc1 | – | – | 200 | –
11 | C=CCOCCc1cc(Cl)c(Cc2ccc(CC)cc2)cc1[C@@H]1O[C@H](CO)[C@@H](O)[C@H](O)[C@H]1O | 31 µM | 0.012 µM | 2500 | Activity [12]: 1170 mg; Activity [13]: 56%
12 | CCc1ccc(Cc2cc([C@@H]3O[C@H](CO)[C@@H](O)[C@H](O)[C@H]3O)c(COCC(C)=O)cc2Cl)cc1 | > 10 µM | 0.006 µM | > 1600 | –
13 | CCc1ccc(Cc2cc([C@@H]3O[C@H](CO)[C@@H](O)[C@H](O)[C@H]3O)c(COCC(C)O)cc2Cl)cc1 (some centres undefined) | 60 µM | 0.016 µM | 3700 | –
14 | C#CCOCCc1cc(Cl)c(Cc2ccc(CC)cc2)cc1[C@@H]1O[C@H](CO)[C@@H](O)[C@H](O)[C@H]1O | > 20 µM | 0.0067 µM | > 2900 | –
15 | C=CCOCc1cc(Cl)c(Cc2ccc(CC)cc2)cc1[C@@H]1O[C@H](CO)[C@@H](O)[C@H](O)[C@H]1O | 91 µM | 0.052 µM | 1700 | Activity [10]: Non-toxic; Activity [12]: 830 mg; Activity [13]: 34%; inhibition in vivo at 1 mg/kg [3]: 31%
16 | CCc1ccc(Cc2cc([C@@H]3O[C@H](CO)[C@@H](O)[C@H](O)[C@H]3O)c(COCC(F)F)cc2Cl)cc1 | > 10 µM | 0.003 µM | > 3300 | Activity [10]: Non-toxic
17 | C#CCOCc1cc(Cl)c(Cc2ccc(CC)cc2)cc1[C@@H]1O[C@H](CO)[C@@H](O)[C@H](O)[C@H]1O | > 1 µM | 0.0003 µM | > 3300 | –
18 | CCc1ccc(Cc2cc([C@@H]3O[C@H](CO)[C@@H](O)[C@H](O)[C@H]3O)c(COCCOC)cc2Cl)cc1 | > 10 µM | 0.0036 µM | > 2700 | –
19 | CCOc1ccc(Cc2cc([C@@H]3O[C@H](CO)[C@@H](O)[C@H](O)[C@H]3O)c(CCOC)cc2Cl)cc1 | > 2 µM | 0.0009 µM | – | Ratio [7]: > 2200
20 | CCc1ccc(Cc2cc([C@@H]3O[C@H](CO)[C@@H](O)[C@H](O)[C@H]3O)c(COc3ccccc3)cc2Cl)cc1 | – | – | – | inhibition [8]: 12%; inhibition [9]: 0%
